Assay results published in a melting point compilation (Tetko et al.; mined from patent text by program, amines drawn as free bases though some values may be those of a salt).

SMILES | melting point [°C]
COc1cc2cc(C(=O)N3CC(COS(C)(=O)=O)c4c3cc(N)c3ccccc43)[nH]c2c(OC)c1OC (stereo unspecified) | > 260
COc1cc(Nc2c(C#N)cnc3cc4c(cc23)ncn4CCN2CCOCC2)c(C)cc1Cl | 246 to 248
CCOP(=O)(CNC(C)(c1ccccc1)c1cc(C(C)(C)C)c(O)c(C(C)(C)C)c1)OCC (stereo unspecified) | 104 to 105
COc1cc(Nc2nccc(-c3cc(OC)c(OC)c(OC)c3)n2)cc(OC)c1OC | 187
O=[N+]([O-])c1cc(C(O)CN2CCN(C(c3ccccc3)c3ccccc3)CC2)ccc1Cl (stereo unspecified) | 163
CC(C)CCOc1c(-c2ccc(S(C)(=O)=O)cc2)cnn(-c2ccc(F)cc2)c1=O | 117 to 120
OCc1cc2cc(Br)ccc2[nH]1 | 111 to 112
N#Cc1cc2nc(O)c(O)nc2cc1C#N | > 300
CCCCNc1c(C(C)=O)cnc2onc(C)c12 | 116 to 117
Cc1csc2ncc(C=O)n12 | 163 to 165
CN(C)c1cc(Cl)c(C=O)c(Cl)c1 | 169 to 171
O=C(O)C(=O)c1ccc(OCC(=O)c2ccc3ccccc3c2)cc1 | 167 to 170
CC1(C)OC(=C(C#N)C#N)C(C#N)=C1c1ccc(Br)cc1 | 235
OCCC1CCc2cc3ccccc3n2C1 (stereo unspecified) | 70 to 72
NC(=O)c1ccc2c(c1)C(=C(Cl)Cl)OC(=C(Cl)Cl)O2 | 217 to 218
O=C(NC1CC1)[C@@H]1CN(C(=O)OCc2ccccc2)C[C@H]1O | 132 to 133
CCOc1cc2c(cc1OC)C(=O)CC(C)(C)O2 | 120 to 122
COc1ccc(C(=O)Nc2ccc(C(=O)O)cc2)cc1C1(C)CCCCC1 | 230 to 231
COc1cc(C)nc(NC(=O)NS(=O)(=O)c2ccsc2S(C)(=O)=O)n1 | 204 to 206
CCc1ccc2c(c1)c(-c1ccccc1Cl)c(NC(=O)Nc1ccc(F)cc1F)c(=O)n2C | 192 to 195
CN(C)c1cc(CO)ncc1F | 80 to 82
O=C(O)[C@@H](Cc1ccccn1)Nc1cc(-c2ccc(OCc3ccccc3)cc2)ncn1 | 142
N#Cc1cc(NC(=O)c2ccccc2F)ccc1-n1nc(C(F)(F)F)cc1C(F)(F)F | 132 to 134
O=[N+]([O-])c1cc(C(F)(F)F)cc2nc(N3CCN(c4ncccc4C(F)(F)F)CC3)[nH]c12 | 192

SMILES | melting point [°C]
COC(=O)c1nc(CN(C)C)n(-c2ccc(Cl)cc2C(=O)c2ccccc2Cl)n1 | 131 to 134
Cc1nc(NC(=O)c2nnn(Cc3ccc(Cl)c(Cl)c3)c2C)sc1C(=O)O | 263
C=CCONC(=O)c1c([Si](C)(C)C)ccc(Cl)c1Cl | 92 to 94
CC(C)n1nc(C#Cc2cccc(Cl)c2)ccc1=O | 94 to 95
COc1cc(OC)nc(Sc2cccc(C)c2C(=O)O)n1 | 131 to 132
COc1ccc(-c2cc(OCC(=O)O)nc(Nc3ccc(OC)c(Cl)c3)n2)cc1 | 258 to 260
O=C1C(O)=C(c2ccc(Cl)cc2)C(=O)C(O)=C1/C=C/c1ccccc1 | 258 to 259
CCCCn1nc(C(C)=O)nc1Cc1ccc(-c2ccccc2-c2nnn[nH]2)nc1 | 157 to 159
O=C1c2ccccc2-c2ccc(-c3nc(COc4ccc(CCCn5ccnc5)cc4)co3)cc21 | 153 to 154
COC(=O)c1cc(-n2c(=O)c3c(n(C)c2=O)CCC3)ccc1Cl | 164 to 166
CCCCCCCCn1c(=O)c2c(N3CCN(C)CC3)cc(Cl)cc2n(Cc2ccccc2)c1=O | 78 to 80
COc1cc(OCc2ccccn2)ccc1/C=C/c1cc(/C=C/c2ccc3ccn(C)c3c2)[nH]n1 | 172 to 174
CN(C)c1ccc(C2OC(=O)c3c(Cl)c(Cl)c(Cl)c(Cl)c32)c(N(C)C)c1 (stereo unspecified) | 195 to 197
CCCCCCCCCCCCCCOc1ccc(CCNC(=O)Cc2cccc(CBr)c2)cc1 | 75 to 77
O=C(O)CCCC1Cc2ccc(F)cc2C1=O (stereo unspecified) | 106 to 107
CCOC(=O)c1c(C2CC2)nn(CC)c1Cc1ccc(-c2ccccc2-c2nnn[nH]2)cc1 | 73 to 77
Cc1cc(N2CCN(C)CC2)n2nc(OCCO)c(S(=O)(=O)c3ccccc3)c2n1 | 178
CCCc1ccc(NC=C(C(=O)OCC)C(=O)c2ccccc2Cl)cc1 | 98.5 to 104
CCCCCCC(=O)C=Cc1ccc(OCc2ccccc2)c(OC)c1 | 78 to 81
Cc1cc(C(=O)NCCCCc2ccc(-c3ccc(=O)[nH]n3)cc2)on1 | 236 to 238
Nc1cnc(-c2cccc(Cl)c2Cl)c(N)n1 | 169 to 170
CCOC(=O)N1CCC(Nc2ccc(Cl)cc2C(=O)c2ccccc2F)CC1 | 112 to 114
COC1CC2CC(OC(=O)c3ccccc3)CCC2(C)C2CCC3(C)C(=C12)C(O)CC3C(C)CCCC(C)C (stereo unspecified) | 182 to 183
Nc1cc(I)cc(CF)c1 | 48.5 to 50

SMILES | melting point [°C]
O=C(O)c1cn(C2CC2)c2cc(N3CC(O)C3)c(F)cc2c1=O | 296 to 298
CCCC12CCC3C4CCC(=O)C=C4CCC3C1CCC2(O)CC (stereo unspecified) | 93 to 95
CC(C)(O)CCNC(=O)c1nn(C2CCCCO2)cc1NC(=O)c1ccccn1 (stereo unspecified) | 138 to 139
CC(=O)c1ccc(Nc2nnc(Cc3ccncc3)c3ccccc23)cc1O | 234 to 236
Cc1c(C)c2c(c(C)c1O)CCC(C)(COc1ccc(CC(Cl)C(=O)O)cc1)O2 (stereo unspecified) | 148 to 149
CC(=O)Oc1ccccc1-c1ccc(Cl)nn1 | 131 to 134
Cc1nc2n(CCN3CCOCC3)c3ccccc3n2c1C(=O)c1ccc(Cl)cc1 | 147 to 148
Cc1c(C(=O)Nc2ccc(N3CCOCC3)c(C#N)c2)cnn1-c1ccc(F)cc1 | 201 to 202
CC(C)(C)OC(=O)N1C(CC2CCCCC2)C(C(O)CNS(=O)(=O)C(c2ccccc2)c2ccccc2)OC1(C)C (stereo unspecified) | 58 to 65
CS(=O)CCC1=NS(=O)(=O)NC(N)=N1 (stereo unspecified) | 180 to 182
COc1ccc(-c2cc(Cl)cc3c2NC(CN)CO3)c(Cl)c1 (stereo unspecified) | 105
OC[C@H](O)CN1CCC[C@@H](Nc2nccc(-c3c(-c4cccc(O)c4)nc4sccn34)n2)C1 | 185 to 187
CC1(NC2=NS(=O)(=O)c3sc(Cl)cc3N2)CCC1 | 294 to 296
CCC(Cc1c(C)cc(C(C)(C)C)c(O)c1C)(C(=O)OC1CC(C)(C)NC(C)(C)C1)C(=O)OC1CC(C)(C)NC(C)(C)C1 | 175
CCOc1ccc(C2=NN(C3CCOCC3)C(=O)[C@H]3CC=CC[C@@H]23)cc1OCC (relative stereo) | 127 to 129
O=[N+]([O-])c1cnn2c1-c1ccccc1NC2c1ccc(Cl)cc1 (stereo unspecified) | 217 to 219
CNCCc1ccc2[nH]c(C)c(C(=O)OCc3ccccc3)c2c1 | 65 to 68
CNc1ccc(NC(=O)c2ccc(-c3[nH]nc4c3C(=O)c3c(NC(=O)NN5CCOCC5)cccc3-4)s2)cc1 | 230
COC(=O)Cc1oc2ccc(Cl)cc2c1-c1ccccc1C | 135 to 136
O[C@H]1CC[C@H](Oc2cccc3onc(OCC4CCN(CC5(O)CCOCC5)CC4)c23)C1 (relative stereo) | 147
CCOC(=O)C=Cc1ccc2c(c1)c1cc(C=CC(=O)OCC)ccc1n2CC | 164 to 168
N#Cc1cccnc1N1CCN(CC(=O)Nc2ccccc2C(F)(F)F)CC1 | 143 to 145
O=c1[nH]c(=O)n(C2CC(F)C(CO)O2)cc1C(I)=CI (stereo unspecified) | 112
O=C(O)c1ccc(OCCNC(=O)C2Cc3ccccc3N2S(=O)(=O)c2ccc(-c3cc(C(F)(F)F)ccc3Cl)cc2)cc1Cl (stereo unspecified) | 106 to 112

SMILES | melting point [°C]
N#Cc1cc(C2=Nc3ccc(C4CC4)cc3NC(=O)C2)ccn1 | 227 to 230
CC(=O)OC1CCC2(C)C(=CCC3C4CCC(=O)C4(C)CC(OC(C)=O)C32)C1 (stereo unspecified) | 177 to 179
COC(=O)c1cnc(COC(=O)C(C)(C)Oc2ccc(Cl)cc2)s1 | 80
O=C1Cc2cc3c(CCC4CCN(Cc5ccc(Br)cc5)CC4)noc3cc2N1 | 177 to 178
CCCc1cc(NC(=S)N2CCN(c3cc(OC)cc(OC)c3)CC2)c(OC)nc1C | 143 to 144
CC(=O)OC1C(CO)OC(n2cnc3c(N)ncnc32)C1OC(C)=O (stereo unspecified) | 138 to 139
C[C@]1(COc2ccc(N3CCN(c4ccc(OC(F)(F)F)cc4)CC3)cc2)Cn2cc([N+](=O)[O-])nc2O1 | 262 to 265
CCOC(=O)CCCN(C(=O)CN(C(=O)c1ccc(Cl)cc1)c1c(C)cccc1C)c1c(C)cccc1C | 150 to 151
CCCCc1nc2cccc(C#N)c2n1Cc1ccccc1Cl | 124 to 127
CC(C)C1(C)NC(c2nc3ccccc3cc2C=O)=NC1=O (stereo unspecified) | 226 to 227
CCN1CCc2cc(Nc3ncc(Cl)c(Nc4ccccc4C(=O)NC)n3)c(OC)c(N)c2CC1 | 117 to 160
COC(=O)/C=C/C=C(\c1ccc(OC)cc1)c1cccnc1 | 75 to 76
O=C(O)c1ccc(Cn2cc(C3c4ccccc4C=Cc4ccccc43)c(=S)[nH]c2=O)o1 | 178 to 180
CSc1cc(Oc2cccc(C(F)(F)F)c2)nc(C(=O)O)c1 | 54 to 57
COc1ccc(-c2c(C(=O)O)n(Cc3cc4c(cc3Cl)OCO4)c3ccccc23)cc1 | 189 to 190
O=C1NC(c2ccccc2)Oc2ccccc21 (stereo unspecified) | 157 to 160
COC(=O)CN(C)C(=O)c1c(OC)ccc2c(Br)c(OC)ccc12 | 142 to 144
COC(=O)c1ncc(C(=O)O)cc1Cl | 182 to 184
CC1C=CCCC1C1OC(=O)NC1=O (stereo unspecified) | 97 to 103
O=C1CCC(c2ccccc2)(c2ccccc2)[C@@H]2CN(C(=O)Cc3ccccc3N3CCCC3)C[C@H]12 (racemic) | 178
CCc1ccccc1OCC(C)NC(=O)C(C#N)C(C)(C)C (stereo unspecified) | 94 to 97
Cc1cc(S(=O)(=O)c2c[nH]c3ccc(F)cc23)ccc1C1CCN(C)C1 (stereo unspecified) | 86.5 to 93.5
C1=CCC2=C(C1)CC1=C(CC=CC1)C2 | 146 to 147
Cc1cccc(NC(=O)NC(Cc2ccccc2)C(=O)O)c1 (racemic) | 182
